Results reported in the NIST ThermoML archive (doi:10.1016/j.jct.2013.08.007).
± gives the expanded uncertainty stated by the source.

How the values were obtained:
[1] = Liquid; for mass density: Vibrating tube method; for viscosity: 101.33 kPa, Moving piston method
[2] = xn = mol fraction of the nth substance listed; conditions: Liquid; for viscosity: Moving piston method; for mass density: Vibrating tube method

CCCCO [butan-1-ol]
mass density [kg/m3], [1]
Conditions	302.9 K	323.1 K
100 kPa	802 ± 0.3	785.6 ± 0.3
1010 kPa	–	786.6 ± 0.3
1020 kPa	802.7 ± 0.3	–
2010 kPa	803.4 ± 0.3	–
2020 kPa	–	787.5 ± 0.3
3010 kPa	804.1 ± 0.3	788.3 ± 0.3
4000 kPa	804.9 ± 0.3	789.2 ± 0.3
5010 kPa	805.7 ± 0.3	–
5020 kPa	–	790 ± 0.3
6000 kPa	806.4 ± 0.3	–
6020 kPa	–	790.9 ± 0.3
7000 kPa	–	791.7 ± 0.3
7020 kPa	807.2 ± 0.3	–
8010 kPa	807.9 ± 0.3	792.5 ± 0.3
9020 kPa	808.7 ± 0.3	793.3 ± 0.3
10020 kPa	809.4 ± 0.3	794.2 ± 0.3

[1]
Conditions	viscosity [mPa·s]
303.15 K	2.197 ± 0.088
323.3 K	1.347 ± 0.055

CCCCO [butan-1-ol] + O=C=O
[2]
Conditions	mass density, 303 K [kg/m3]	mass density, 323.1 K [kg/m3]	viscosity, 303 K [mPa·s]	viscosity, 323.1 K [mPa·s]
920 kPa, x2 = 0.047	–	789.3 ± 0.9	–	1.143 ± 0.029
1050 kPa, x2 = 0.07	808.1 ± 0.6	–	1.744 ± 0.079	–
1920 kPa, x2 = 0.098	–	793.3 ± 4.4	–	1 ± 0.11
2030 kPa, x2 = 0.14	814.3 ± 0.7	–	1.428 ± 0.063	–
2940 kPa, x2 = 0.151	–	798.4 ± 1	–	0.828 ± 0.054
3220 kPa, x2 = 0.217	822.8 ± 0.5	–	1.16 ± 0.04	–
3990 kPa, x2 = 0.223	–	802 ± 0.8	–	0.722 ± 0.02
4100 kPa, x2 = 0.304	828.4 ± 0.4	–	0.87 ± 0.044	–
4970 kPa, x2 = 0.384	835.3 ± 0.6	–	0.661 ± 0.022	–
5100 kPa, x2 = 0.288	–	806.7 ± 0.6	–	0.599 ± 0.017
6250 kPa, x2 = 0.374	–	811 ± 0.8	–	0.486 ± 0.016

CC [ethane] + CCCCO
[2]
Conditions	mass density, 303 K [kg/m3]	mass density, 323.1 K [kg/m3]	viscosity, 303 K [mPa·s]	viscosity, 323.1 K [mPa·s]
1050 kPa, x1 = 0.097	776.8 ± 0.8	–	1.553 ± 0.059	–
1140 kPa, x1 = 0.086	–	762.8 ± 1.1	–	1.008 ± 0.021
2050 kPa, x1 = 0.157	–	744.2 ± 3.3	–	0.801 ± 0.05
2080 kPa, x1 = 0.214	745.4 ± 3.1	–	1.114 ± 0.05	–
3070 kPa, x1 = 0.243	–	718.4 ± 2.3	–	0.618 ± 0.028
3070 kPa, x1 = 0.341	704.9 ± 3.2	–	0.668 ± 0.039	–
4070 kPa, x1 = 0.336	–	688.3 ± 3.8	–	0.462 ± 0.024
4950 kPa, x1 = 0.428	–	652.9 ± 2.4	–	0.351 ± 0.015
6020 kPa, x1 = 0.579	–	588.2 ± 1.9	–	0.212 ± 0.012

C [methane] + CCCCO
[2]
Conditions	mass density, 303 K [kg/m3]	mass density, 323.1 K [kg/m3]	viscosity, 303 K [mPa·s]	viscosity, 323.1 K [mPa·s]
1050 kPa, x1 = 0.02	–	782.2 ± 0.7	–	1.236 ± 0.035
1060 kPa, x1 = 0.021	797.6 ± 0.6	–	1.994 ± 0.1	–
2070 kPa, x1 = 0.035	–	778.5 ± 3.2	–	1.174 ± 0.13
2100 kPa, x1 = 0.039	793.7 ± 3.1	–	1.86 ± 0.057	–
2980 kPa, x1 = 0.048	–	775.5 ± 1	–	1.131 ± 0.031
3120 kPa, x1 = 0.056	789.4 ± 1.8	–	1.731 ± 0.25	–
4030 kPa, x1 = 0.065	–	771.6 ± 1	–	1.085 ± 0.042
4080 kPa, x1 = 0.071	785.8 ± 3.9	–	1.67 ± 0.12	–
5020 kPa, x1 = 0.079	–	767.9 ± 1	–	1.046 ± 0.029
5090 kPa, x1 = 0.087	781.8 ± 2.9	–	1.612 ± 0.077	–
6070 kPa, x1 = 0.095	–	764.2 ± 0.6	–	1.005 ± 0.034
6070 kPa, x1 = 0.102	778.3 ± 0.7	–	1.548 ± 0.083	–
